Consider one molecule from US12527798B2, “Preservation of immune response during chemotherapy regimens” (Pharmacosmos Holding A/S, priority 2016, dated 2026).

The structures appear in SMILES notation.

Experiment [1] has as its system MC38 tumors. Nature of the experiment: Whole-tumor interferon-gamma (Ifng) expression, PanCancer Immune Profiling Panel (Example 13). Particulars: Compound I added to oxaliplatin or oxaliplatin/anti-PD-L1 combinations, eight days; FIGS. 28-31. The experiment is classed as in vivo, C57BL/6 mice. The method, then:
Twenty-four hours after the final dose, mice were euthanized and tumors were harvested for analysis. Gene expression analysis was performed on whole tumors using the PanCancer Immune Profiling Panel. The normalized and Log 2 transformed expression level of interferon-gamma (Ifng) is plotted for each pair of treatment groups with or without Compound I. T=Compound I, O=oxaliplatin, P=anti-PD-L1.

The subject of experiment [2] is CT26 tumor. In words: CT26 tumor growth in mice (Example 7). Particulars: Compound I added to an anti-PD-L1/oxaliplatin regimen. The format is in vivo. The method, then:
CT26 bearing mice are treated with Compound I (IP, 100 mg/kg, weekly×3), anti-PD-L1 (IP, 5 mg/animal, biweekly to end), and/or oxaliplatin (IP, 10 mg/kg, weekly×3) and tumors were evaluated.

Experiment [3] has as its system MC38 tumor cells. The format is in vivo. Conditions: dosing schedule not given, anti-PD-L1 combination study. The method, then: Anti-tumor activity of Compound I in combination with PD-L1 (clone 10F.9G2) and oxaliplatin was evaluated in the MC38 syngeneic murine colon carcinoma model. For all xenograft studies, nine-week old female C57BL/6 mice (C57BL/6NCrl) were implanted with MC38 tumor cells and treatment was initiated when mean tumor volume was approximately 100 mm^3.
Briefly, Compound I (100 mg/kg) and oxaliplatin (10 mg/kg) were administered intraperitoneally (IP) once weekly for three doses and the checkpoint inhibitor administration was varied as depending on the dosing schedule. In the Induction (I) dosing schedule, mouse anti-PD-L1 (100 μg/animal, IP) was given twice weekly for two weeks starting on Day 1 and ending on Day 15. In the Maintenance (M) dosing schedule, mouse anti-PD-L1 (100 μg/animal, IP) was given twice weekly starting on Day 15 and continuing through the end of study. In the Induction+Maintenance (IM) dosing schedule, mouse anti-PD-L1 (100 μg/animal, IP) was given twice weekly starting on Day 1 and continuing through the end of study.
Single, two, and three drug combinations were tested and Compound I was administered 30 minutes prior to chemotherapy treatment. Complete response (CR) and partial response (PR) were calculated using standard Charles River Laboratories (CRL; RTP, NC) criteria. Body weight (BW) and health were monitored, and tumor volume was measured twice weekly. The individual tumor volume endpoint was 1000 mm^3 or Day 100, whichever came first. The arms of the study included the following: • 1) vehicle • 2) Compound I+anti-PD-L1 (clone 10F.9G2), IM dosing schedule • 3) Compound I+Oxaliplatin+anti-PD-L1 (clone 10F.9G2), IM dosing schedule • 4) Oxaliplatin+anti-mouse PD-L1 (clone 10F.9G2), M dosing schedule • 5) Compound I+oxaliplatin+anti-mouse PD-L1 (clone 10F.9G2), M dosing schedule • 6) oxaliplatin+anti-mouse PD-L1 (clone 10F.9G2), I dosing schedule • 7) Compound I+oxaliplatin+anti-mouse PD-L1 (clone 10F.9G2), I dosing schedule

On to `CN1CCN(c2ccc(Nc3ncc4cc5n(c4n3)C3(CCCCC3)CNC5=O)nc2)CC1` [Compound I, trilaciclib], for which, in experiment [1], the “interferon-gamma gene expression in tumor” value is “Upregulation”. Further, the anti-tumor efficacy entry in experiment [2] is reported as “consistently enhanced anti-tumor efficacy”. Further, in experiment [3], the “Complete Response %” value was 0%, the “Objective Response Rate %” value is 0%, the “Overall Survival (OS)” value is on record as 19 and the “Partial Response %” value was determined as 0%.
